Biological target: His-tagged recombinant human Gal-3 (hGal-3) (Homo sapiens, UniProt P17931)
Assay: Gal-3 HTRF assay: His-tagged hGal-3 binding to B-ASF, Anti-His terbium antibody / Streptavidin d2 detection;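 note: compound preincubated 30 min with hGal-3, then 1 h with B-ASF, DMSO wells with B-ASF serving as positive control and those lacking B-ASF as negative control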
Conditions: 15 nM hGal-3, 15 nM B-ASF, three replicates, room temperature

Chain of His-tagged recombinant human Gal-3 (hGal-3) (P17931 whole entry): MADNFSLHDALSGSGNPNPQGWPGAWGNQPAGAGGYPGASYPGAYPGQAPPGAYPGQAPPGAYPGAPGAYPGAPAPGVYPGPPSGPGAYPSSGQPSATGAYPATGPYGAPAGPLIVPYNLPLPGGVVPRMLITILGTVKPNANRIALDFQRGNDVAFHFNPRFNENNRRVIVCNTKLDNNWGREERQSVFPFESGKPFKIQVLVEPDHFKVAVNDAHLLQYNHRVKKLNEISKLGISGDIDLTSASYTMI

Row | SMILES | IC50 [nM]
1 | CO[C@@H]1[C@@H](n2cc(-c3ccc4nccnc4c3)nn2)[C@@H](O)[C@@H](CO)O[C@H]1S[C@@H]1COC[C@H](n2cc(-c3ccccc3)nn2)[C@H]1O [Example A8, (2R,3R,4S,5R,6S)-6-(((3R,4R,5S)-4-hydroxy-5-(4-phenyl-1H-1,2,3-triazol-1-yl)tetrahydro-2H-pyran-3-yl)thio)-2-(hydroxymethyl)-5-methoxy-4-(4-(quinoxalin-6-yl)-1H-1,2,3-triazol-1-yl)tetrahydro-2H-pyran-3-ol] | 170
2 | CO[C@@H]1[C@@H](n2cc(-c3ccnnc3)nn2)[C@@H](O)[C@@H](CO)O[C@H]1S[C@@H]1COC[C@H](n2cc(-c3ccccc3)nn2)[C@H]1O [Example A9, (2R,3R,4S,5R,6S)-6-(((3R,4R,5S)-4-hydroxy-5-(4-phenyl-1H-1,2,3-triazol-1-yl)tetrahydro-2H-pyran-3-yl)thio)-2-(hydroxymethyl)-5-methoxy-4-(4-(pyridazin-4-yl)-1H-1,2,3-triazol-1-yl)tetrahydro-2H-pyran-3-ol] | 1240
3 | CO[C@@H]1[C@@H](n2cc(-c3ccc4ccccc4c3)nn2)[C@@H](O)[C@@H](CO)O[C@H]1S[C@@H]1COC[C@H](n2cc(-c3ccccc3)nn2)[C@H]1O [Example A10, (2R,3R,4S,5R,6S)-6-(((3R,4R,5S)-4-hydroxy-5-(4-phenyl-1H-1,2,3-triazol-1-yl)tetrahydro-2H-pyran-3-yl)thio)-2-(hydroxymethyl)-5-methoxy-4-(4-(naphthalen-2-yl)-1H-1,2,3-triazol-1-yl)tetrahydro-2H-pyran-3-ol] | 330
4 | COC(=O)C12CCC(c3cn(C4C(O)C(CO)OC(SC5COCC(n6cc(-c7ccccc7)nn6)C5O)C4OC)nn3)(CC1)CC2 [Example A11, methyl 4-(1-((2R,3R,4S,5R,6S)-3-hydroxy-6-(((3R,4R,5S)-4-hydroxy-5-(4-phenyl-1H)-1,2,3-triazol-1-yl)tetrahydro-2H-pyran-3-yl)thio)-2-(hydroxymethyl)-5-methoxytetrahydro-2H-pyran-4-yl)-1H-1,2,3-triazol-4-yl)bicyclo[2.2.2]octane-1-carboxylate] | 1860
5 | CO[C@@H]1[C@@H](NC(=O)c2cc(F)c(F)c(F)c2)[C@@H](O)[C@@H](CO)O[C@H]1S[C@@H]1COC[C@H](n2cc(-c3ccccc3)nn2)[C@H]1O [Example A12, 3,4,5-trifluoro-N-((2R,3R,4S,5R,6S)-3-hydroxy-6-(((3R,4R,5S)-4-hydroxy-5-(4-phenyl-1H-1,2,3-triazol-1-yl)tetrahydro-2H-pyran-3-yl)thio)-2-(hydroxymethyl)-5-methoxytetrahydro-2H-pyran-4-yl)benzamide] | 1400
6 | COc1c(F)c(F)c(C(=O)N[C@H]2[C@@H](O)[C@@H](CO)O[C@@H](S[C@@H]3COC[C@H](n4cc(-c5ccccc5)nn4)[C@H]3O)[C@@H]2OC)c(F)c1F [Example A13, 2,3,5,6-tetrafluoro-N-((2R,3R,4S,5R,6S)-3-hydroxy-6-(((3R,4R,5S)-4-hydroxy-5-(4-phenyl-1H-1,2,3-triazol-1-yl)tetrahydro-2H-pyran-3-yl)thio)-2-(hydroxymethyl)-5-methoxytetrahydro-2H-pyran-4-yl)-4-methoxybenzamide] | 570
7 | COC1C(SC2CNCC(n3cc(-c4cccc(F)c4)nn3)C2O)OC(CO)C(O)C1n1cc(-c2cc(F)c(F)c(F)c2)nn1 (stereo not shown) [Example B1] | 67
8 | COC1C(SC2CN(C(C)=O)CC(n3cc(-c4cccc(F)c4)nn3)C2O)OC(CO)C(O)C1n1cc(-c2cc(F)c(F)c(F)c2)nn1 (stereo not shown) [Example B2] | 37
9 | COC1C(SC2CN(C(C)=O)CC(n3cc(-c4cccc(F)c4)nn3)C2O)OC(CO)C(O)C1n1cc(-c2cccc(F)c2)nn1 [Example B3, 1-((3S,4R,5R)-3-(4-(3-fluorophenyl)-1H-1,2,3-triazol-1-yl)-5-(((2S,3R,4S,5R,6R)-4-(4-(3-fluorophenyl)-1H-1,2,3-triazol-1-yl)-5-hydroxy-6-(hydroxymethyl)-3-methoxytetrahydro-2H-pyran-2-yl)thio)-4-hydroxypipeddin-1-yl)ethan-1-one] | 54
10 | CC(=O)N1C[C@@H](S[C@@H]2O[C@H](CO)[C@H](O)[C@H](n3cc(-c4cc(F)c(F)c(F)c4)nn3)[C@H]2OCC(=O)O)[C@H](O)[C@@H](n2cc(-c3cccc(F)c3)nn2)C1 [Example B4, 2-(((2S,3R,4S,5R,6R)-2-(((3R,4R,5S)-1-acetyl-5-(4-(3-fluorophenyl)-1H-1,2,3-triazol-1-yl)-4-hydroxypiperidin-3-yl)thio)-5-hydroxy-6-(hydroxymethyl)-4-(4-(3,4,5-trifluorophenyl)-1H-1,2,3-triazol-1-yl)tetrahydro-2H-pyran-3-yl)oxy)acetic acid] | 32

From patent US11970511B2, “Tetrahydropyran-based thiodisaccharide mimics as Galectin-3 inhibitors” (BRISTOL-MYERS SQUIBB COMPANY, priority 2018, dated 2024)
